Laboratory results reported in US20130203718A1 (priority 2010, published 2013).

Tests used:
[1] = target: T1, hPRB and TIF-2 (Homo sapiens, UniProt P06401); assay: Mammalian two hybrid assay, recruitment of co-activator TIF-2 (TIF-2-Nter, TIF-2-NterRID) by hPRB; assay type: cell-based; conditions: HEK293T; for recruitment of co-activator TIF-2 sequences by hPRB upon ligand binding: TIF-2-Nter and TIF-2-NterRID, FIGS. 15-17; for inhibition of progesterone induced TIF-2 recruitment by hPRB: two hybrid, FIG. 18
T1 construct: expressed in transfected cells; host or cells: HEK 293T
T1 sequence (P06401 1-933): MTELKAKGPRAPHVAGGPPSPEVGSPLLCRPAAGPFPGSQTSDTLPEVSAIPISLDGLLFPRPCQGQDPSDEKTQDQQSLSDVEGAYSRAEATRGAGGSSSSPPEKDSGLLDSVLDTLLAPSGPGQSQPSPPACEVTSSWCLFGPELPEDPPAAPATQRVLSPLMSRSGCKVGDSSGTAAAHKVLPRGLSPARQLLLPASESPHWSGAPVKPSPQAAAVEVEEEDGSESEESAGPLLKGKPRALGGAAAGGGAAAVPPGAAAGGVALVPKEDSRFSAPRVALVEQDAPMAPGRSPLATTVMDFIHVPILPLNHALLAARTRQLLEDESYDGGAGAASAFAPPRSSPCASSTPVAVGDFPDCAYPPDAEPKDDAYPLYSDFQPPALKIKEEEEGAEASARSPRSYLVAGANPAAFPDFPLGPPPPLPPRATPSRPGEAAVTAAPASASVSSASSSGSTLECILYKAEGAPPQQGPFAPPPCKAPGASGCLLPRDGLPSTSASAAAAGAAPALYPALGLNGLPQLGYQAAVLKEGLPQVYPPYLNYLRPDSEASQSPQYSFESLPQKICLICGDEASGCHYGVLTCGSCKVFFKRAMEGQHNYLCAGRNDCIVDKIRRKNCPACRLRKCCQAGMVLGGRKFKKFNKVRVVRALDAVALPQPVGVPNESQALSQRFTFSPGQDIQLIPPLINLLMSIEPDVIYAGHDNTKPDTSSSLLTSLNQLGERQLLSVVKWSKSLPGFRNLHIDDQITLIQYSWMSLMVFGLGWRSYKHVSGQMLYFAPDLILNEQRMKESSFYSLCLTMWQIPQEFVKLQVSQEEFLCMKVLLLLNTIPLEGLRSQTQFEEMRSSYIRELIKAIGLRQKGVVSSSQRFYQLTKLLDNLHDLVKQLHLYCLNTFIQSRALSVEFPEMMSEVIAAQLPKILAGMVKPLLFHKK
Procedure: (§1) Mammalian Two Hybrid Assays.
(§2) To investigate whether hPR was able to recruit transcriptional corepressors upon APRn binding, two hybrid assays have been performed in HEK 293T cells. Cell transfection were carried out according to the protocol used for the PR transactivation assays, with 1 μg of pGAL4-SMRT or pGAL4-NcoR, 2.5 μg of the PR expression vector pV16-PR and 5 μg of the reporter pG5-luc. The plasmid pGAL4-SMRT and pGAL4-NcoR, provided by P. Balaguer, encode the fusion protein between the GAL4 DNA-binding domain (GAL4DBD) and the receptor interacting domain (RID) of the corepressor […], respectively. The expression vector pV16PR encodes the VP16 activation domain of herpes simplex virus fused to the entire hPR and pG5-luc, provided by P. Fuller, encodes the luciferase gene driven by a GAL4-responsive promoter. […] Cell transfection were carried out according to the PR transactivation assays, by using 2 μg of pM-TIF2/Nter-RID or […], 2 μg of the expression vector pV16PR and 5 μg of the reporter pG5luc. The plasmids pM-TIF2/Nter-RID encodes the fusion proteins between the GAL4 DBD and the 1-867 TIF2 sequence corresponding to the Nter and RID domains. The plasmids pMTIF2-Nter encodes the fusion proteins between the GAL4 DBD and the 1-623 TIF2 sequence corresponding to the Nter domain. After 16 h incubation, the transfected cells were washed with PBS containing 2.5 mM EDTA, trypsinized and replated in 24-well plates. […] Cells were lysed and the luciferase and activities were quantified by using a Mithras reader microplates (Berthold).
Both agonist- and antagonist-bound PR regulate gene transcription with the assistance of transcriptional co-repressors (NCoR, SMRT) or co-activators (namely, TIF-2). To characterize the mechanism by which APRn inactivate hPRB, the capacity of hPRB to recruit transcriptional co-regulators upon APRn binding has been evaluated. With this aim, mammalian two-hybrid assays in HEK293T cells have been performed by using two series of fusion proteins: (i) the VP16 activation domain of herpes simplex virus fused to the entire hPRB and (ii) the GAL4 DNA-binding domain (DBD) fused to the receptor interacting domain (RID) of corepressors (NCoR and SMRT), the GAL4 DBD fused to the 1-867 sequence of the co-activator TIF2 (corresponding to the Nter and RID domains), the GAL4 DBD fused to the 1-623 sequence of TIF2 (corresponding to the Nter domain).
Further, the capacity of hPRB to bind the co-activator TIF-2 was examined. The two-hybrid assays were performed with the TIF-2 sequence encompassing its N-ter region alone (TIF-2-Nter) or the sequence including the N-ter and the RID regions (TIF-2-NterRID).

[2] = tested on: PRB-mediated amphiregulin gene transcription; assay: Quantitative RT-PCR of endogenous gene transcription in MDA-MB-231 iPRAB cells; assay type: cell-based, human; conditions: APRn 1 μM, 6 h, FIG. 10
Procedure: MDA-MB-231 iPRAB cells were cultured in 6-well plates in RPMI 1640 medium with L-glutamine without phenol red, enriched with 5% DCC serum containing inducer ligand RSL1 (500 nM) or Dox (1 μg/ml) for PRA or PRB expression during 24 h. […] Total RNA was then extracted using TRIZOL reagent (Invitrogen). One μg of total RNA was treated with DNase I Amplification Grade (Invitrogen) and then reverse transcribed using cDNA RT kit from Applied Biosystems (Courtaboeuf, France) and random primers. Following a ten-fold dilution, the cDNA samples were amplified in duplicate by real-time PCR in ABI 7300 apparatus (Applied Biosystems), using the Power SYBR Green PCR Master Mix (Applied Biosystems) in the presence of 300 nM of forward and reverse specific primers. A dissociation curve was also obtained at the end of the reaction to verify the specificity of the pair of primers. Standard curve for PCR calibration of each gene transcript tested was obtained with the corresponding amplicon subcloned in pGEMT-easy (Promega) and verified by sequencing analysis. The expression level of each gene transcript was normalized to 18S RNA level, and results were expressed as means of relative concentrations of six samples (attomole of specific gene cDNA/femtomole of 18S cDNA±SEM.)
The selected APRn (APR16, APR19, APR43, APR47, APR51, APR54) were verified for their agonist and antagonistic properties on endogenous gene transcription. A ligand activated PRB target gene, amphiregulin was selected for these studies (Georgiakaki, M. Mol Endocrinol 2006, 20, 2122) and quantitative RT-PCR analysis was performed in MDA-MB-231 iPRAB cells as described in Materials and Methods.

[3] = target: T2, hPRB and SMRT (Homo sapiens, UniProt P06401); assay: Mammalian two hybrid assay, recruitment of co-repressor SMRT by hPRB; assay type: cell-based; conditions: HEK293T, FIGS. 13 and 14
T2 construct: expressed in transfected cells; host or cells: HEK 293T
T2 sequence (P06401 1-933): T1 sequence (P06401 1-933)
Procedure: as §1, §2
Both agonist- and antagonist-bound PR regulate gene transcription with the assistance of transcriptional co-repressors (NCoR, SMRT) or co-activators (namely, TIF-2). To characterize the mechanism by which APRn inactivate hPRB, the capacity of hPRB to recruit transcriptional co-regulators upon APRn binding has been evaluated. […]

Row | Structure (SMILES) | recruitment of co-activator TIF-2 sequences by hPRB upon ligand binding [1] | inhibition of progesterone induced TIF-2 recruitment by hPRB [1] | agonistic effect on amphiregulin gene transcription [2] | recruitment of co-repressor SMRT by hPRB upon ligand binding [3]
1 | CC(=O)[C@H]1CC[C@H]2[C@@H]3CC=C4C[C@@H](F)CC[C@]4(C)[C@H]3CC[C@]12C [APR-16, 3β-Fluoropregn-5-en-20-one] | unable to recruit the two TIF-2 sequences | able to inhibit the progesterone induced TIF-2 recruitment | nearly unable to exert agonistic effect | unable to recruit
2 | C[C@]12CCC3C(CC=C4C[C@@H](F)CC[C@@H]43)C1CCC2=O (stereo partly drawn) [APR-47, 3β-Fluoro-19-nor-androst-5-en-17-one] | unable to recruit the two TIF-2 sequences | able to inhibit the progesterone induced TIF-2 recruitment | nearly unable to exert agonistic effect | unable to recruit
3 | CC#C[C@]1(O)CCC2C3CC[C@H]4CCCC[C@@H]4C3CC[C@@]21C (stereo partly drawn) [APR-54, 17α-(1-Propynyl)-19-nor-5-androstan-17β-ol] | unable to recruit the two TIF-2 sequences | able to inhibit the progesterone induced TIF-2 recruitment | nearly unable to exert agonistic effect | unable to recruit
